Assay results from US7897602B2, “Indolinone compounds as kinase inhibitors” (Development Center for Biotechnology, priority 2009, dated 2011).

Experiments:
Format in all cases: biochemical
c-Met kinase = molecular target: T1, c-Met kinase (Homo sapiens, UniProt P08581); test: c-Met kinase assay (33P incorporation into Poly(Glu-Tyr)); details: 500 nM test compound
T1 construct: recombinant N-terminal 6×His-tagged c-Met kinase domain construct expressed from baculovirus; 6xHis (N); made in house
In short: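 Single-concentration test (500 nM compound) at 30° C for 30 min, pH 7.0 MOPS buffer with 100 μM ATP and [33P]-γ-ATP. Enzyme was baculovirus-expressed 6×His c-Met kinase domain (5 ng), substrate Poly(Glu-Tyr) 4:1. Inhibition percentage derived from filter-bound counts relative to DMSO control.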

VEGFR2 kinase = molecular target: T2, VEGFR2 kinase (Homo sapiens, UniProt P35968); test: VEGFR2 kinase assay (33P incorporation into Poly(Glu-Tyr)); details: 500 nM test compound; read-out: Inhibition at 500 nM (%) VEGFr-2
T2 construct: recombinant N-terminal 6×His-tagged VEGFR2 kinase domain construct expressed by baculovirus; 6xHis (N); made in house
In short: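 Recombinant baculovirus-expressed N-terminal His6-tagged VEGFR2 kinase domain (6.25 ng) phosphorylated poly(Glu-Tyr) 4:1 with 100 μM ATP plus [33P]-γ-ATP in MOPS pH 7.0, 30 °C, 30 min. Test compound was at 500 nM (4% DMSO). Filter-retained radioactivity relative to DMSO control gave % inhibition.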

Aurora B kinase = molecular target: T3, Aurora B kinase (Homo sapiens, UniProt Q96GD4); test: Aurora B kinase assay ([γ-33P]ATP, CHOCKtide substrate); details: 1.0 μM test compound
T3 construct: purchased Cell signaling
In short: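 Radiometric filter-binding format: 33P incorporation into CHOCKtide counted after acid stop and filtration. Reactions ran 30 min at 33 °C, Aurora A with 10 μM ATP, Aurora B with 40 μM ATP. IC50 taken as concentration giving half-maximal kinase inhibition.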

T2 sequence (P35968 834-1162 limits assumed): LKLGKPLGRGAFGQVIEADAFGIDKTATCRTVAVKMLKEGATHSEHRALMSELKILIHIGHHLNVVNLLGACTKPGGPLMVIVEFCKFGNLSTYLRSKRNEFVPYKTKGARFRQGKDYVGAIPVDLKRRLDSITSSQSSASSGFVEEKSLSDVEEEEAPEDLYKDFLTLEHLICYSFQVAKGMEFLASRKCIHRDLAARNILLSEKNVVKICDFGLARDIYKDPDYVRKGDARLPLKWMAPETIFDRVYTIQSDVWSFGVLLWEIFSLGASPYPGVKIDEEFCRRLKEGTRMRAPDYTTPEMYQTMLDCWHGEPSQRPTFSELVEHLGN
T1 sequence (P08581 1078-1345 limits assumed): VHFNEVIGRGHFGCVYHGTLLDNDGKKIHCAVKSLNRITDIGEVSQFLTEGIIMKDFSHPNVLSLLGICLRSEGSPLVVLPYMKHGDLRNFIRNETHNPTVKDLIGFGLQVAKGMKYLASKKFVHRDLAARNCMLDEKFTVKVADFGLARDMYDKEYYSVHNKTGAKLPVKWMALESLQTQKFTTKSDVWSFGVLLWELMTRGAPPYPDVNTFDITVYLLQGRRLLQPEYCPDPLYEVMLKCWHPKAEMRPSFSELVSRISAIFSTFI
T3 sequence (Q96GD4 whole entry): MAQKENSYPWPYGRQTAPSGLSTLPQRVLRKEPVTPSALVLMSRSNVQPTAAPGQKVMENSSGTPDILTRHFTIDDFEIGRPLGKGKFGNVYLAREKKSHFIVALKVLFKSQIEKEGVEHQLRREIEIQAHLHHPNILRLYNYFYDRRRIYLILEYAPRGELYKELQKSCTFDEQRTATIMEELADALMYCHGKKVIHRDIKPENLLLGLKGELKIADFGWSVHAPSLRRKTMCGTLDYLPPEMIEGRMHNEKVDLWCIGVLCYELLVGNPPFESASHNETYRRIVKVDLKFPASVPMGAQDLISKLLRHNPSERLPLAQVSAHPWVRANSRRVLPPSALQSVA

SMILES: CN(c1cccc(Cl)c1)S(=O)(=O)c1ccc2c(c1)/C(=C/c1[nH]c3c(c1CCC(=O)O)C(=O)CCCC3)C(=O)N2 [DCB-70148, (Z)-3-(2-((5-(N-(3-chlorophenyl)-N-methylsulfamoyl)-2-oxoindolin-3-ylidene)methyl)-4-oxo-1,4,5,6,7,8-hexahydrocyclohepta[b]pyrrol-3-yl)propanoic acid]
- inhibition at 0.5 µM (c-Met kinase): 74.9%
- inhibition at 0.5 µM (VEGFR2 kinase): 67.6%
- inhibition at 1 µM (Aurora B kinase): 30.2%

SMILES: CCOC(=O)CCc1c(/C=C2\C(=O)Nc3ccc(NC(=O)c4ccc(OC)cc4)cc32)[nH]c2c1C(=O)CCC2 [DCB-70141, (Z)-ethyl 3-(2-((5-(4-methoxybenzamido)-2-oxoindolin-3-ylidene)methyl)-4-oxo-4,5,6,7-tetrahydro-1H-indol-3-yl)propanoate]
- inhibition at 0.5 µM (c-Met kinase): -1.2%
- inhibition at 0.5 µM (VEGFR2 kinase): 28.9%
- inhibition at 1 µM (Aurora B kinase): -23%

SMILES: COc1ccc(C(=O)Nc2ccc3c(c2)/C(=C/c2[nH]c4c(c2CCC(=O)O)C(=O)CCC4)C(=O)N3)cc1 [DCB-70143, (Z)-3-(2-((5-(4-methoxybenzamido)-2-oxoindolin-3-ylidene)methyl)-4-oxo-4,5,6,7-tetrahydro-1H-indol-3-yl)propanoic acid]
- inhibition at 0.5 µM (c-Met kinase): -8.2%
- inhibition at 0.5 µM (VEGFR2 kinase): 38.1%
- inhibition at 1 µM (Aurora B kinase): 9.1%

SMILES: O=C(O)CCc1c(/C=C2\C(=O)Nc3ccc(S(=O)(=O)Nc4ccc(F)c(Cl)c4)cc32)[nH]c2c1C(=O)CCCC2 [DCB-70149, (Z)-3-(2-((5-(N-(3-chloro-4-fluorophenyl)sulfamoyl)-2-oxoindolin-3-ylidene)methyl)-4-oxo-1,4,5,6,7,8-hexahydrocyclohepta[b]pyrrol-3-yl)propanoic acid]
- inhibition at 0.5 µM (c-Met kinase): 8.4%
- inhibition at 0.5 µM (VEGFR2 kinase): 57.5%
- inhibition at 1 µM (Aurora B kinase): 18.7%
